Data taken from patent US11142515B2, “Pyrazolyl-ureas as kinase inhibitors” (RESPIVERT LIMITED, priority 2014, dated 2021).

Legend:
[1] = test system: d-U937 cells; assay: Cell viability: MTT assay in differentiated U937 cells; format: cell-based, human; settings: 10 μg/mL
Experimental: Differentiated U937 cells were pre-incubated with each test compound (final concentration 10 μg/mL in 200 μL media indicated below) under two protocols: the first for 4 h in 5% FCS RPMI1640 media and the second in 10% FCS RPMI1640 media for 24 h. The supernatant was replaced with new media (200 μL) and MTT stock solution (10 μL, 5 mg/mL) was added to each well. After incubation for 1 h the media were removed, DMSO (200 μL) was added to each well and the plates were shaken lightly for 1 h prior to reading the absorbance at 550 nm. The percentage loss of cell viability was calculated for each well relative to vehicle (0.5% DMSO) treatment. Consequently an apparent increase in cell viability for drug treatment relative to vehicle is tabulated as a negative percentage.

[2] = target: T1, p38MAPKγ (MAPK12) (Homo sapiens, UniProt P53778); assay: p38 MAPKγ enzyme inhibition (Z-LYTE FRET); format: biochemical; settings: Table 2B, unit inferred; read-out: p38 MAPKγ (Enzyme Profile)
T1 construct: purchased Life Technologies
T1 sequence (P53778 1-367): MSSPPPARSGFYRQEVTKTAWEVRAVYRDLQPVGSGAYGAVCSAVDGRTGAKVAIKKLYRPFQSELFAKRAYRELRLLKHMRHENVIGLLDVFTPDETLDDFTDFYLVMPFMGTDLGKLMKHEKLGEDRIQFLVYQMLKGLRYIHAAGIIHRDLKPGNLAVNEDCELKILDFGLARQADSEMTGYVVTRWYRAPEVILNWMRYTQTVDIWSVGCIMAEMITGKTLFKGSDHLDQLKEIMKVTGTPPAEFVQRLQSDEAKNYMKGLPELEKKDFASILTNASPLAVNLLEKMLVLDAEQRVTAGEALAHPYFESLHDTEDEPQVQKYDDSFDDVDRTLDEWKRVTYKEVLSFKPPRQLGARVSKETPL
In short: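 Z-LYTE read-out: after 1 h protease development, only non-phosphorylated peptide is cleaved, and the donor/acceptor (coumarin/fluorescein) ratio reports phosphorylation. Beforehand, enzyme and compound (stock concentrations 0.0012–40 μg/mL) were preincubated 2 h at RT, then the kinase reaction ran 1 h at RT with peptide and ATP (8 μM and 400 μM stocks).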

[3] = target: T2, p38 MAPKα isoform (MAPK14) (Homo sapiens, UniProt Q16539); assay: p38 MAPKα enzyme inhibition (Z-LYTE FRET); format: biochemical; settings: Table 2B, unit inferred; read-out: p38 MAPKα (Enzyme Profile)
T2 construct: purchased Life Technologies
In short: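 Recombinant human MAPK14 (40 ng/mL stock) was preincubated 2 h at RT with compound (stock dilutions 0.0012-40 μg/mL). The Z-LYTE FRET read-out used a MAPKAP-K2-derived peptide, and protease development for 1 h cleaved only non-phosphorylated peptide. Phosphorylation was calculated from the coumarin/fluorescein emission ratio.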

T2 sequence (Q16539 whole entry, canonical isoform): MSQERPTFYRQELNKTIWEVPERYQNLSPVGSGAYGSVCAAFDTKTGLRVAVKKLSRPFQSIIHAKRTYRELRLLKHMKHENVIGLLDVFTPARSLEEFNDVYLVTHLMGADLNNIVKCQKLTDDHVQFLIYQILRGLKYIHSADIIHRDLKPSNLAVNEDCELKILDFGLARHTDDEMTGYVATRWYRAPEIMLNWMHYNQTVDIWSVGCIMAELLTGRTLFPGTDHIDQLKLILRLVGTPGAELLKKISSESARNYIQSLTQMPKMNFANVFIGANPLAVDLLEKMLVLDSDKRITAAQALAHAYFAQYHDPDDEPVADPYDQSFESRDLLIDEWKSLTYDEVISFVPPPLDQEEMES

| SMILES | MTT Assay Cell viability at time point indicated in d-U937 Cells, 4 h ([1]; 4 h) | MTT Assay Cell viability at time point indicated in d-U937 Cells, 24 h ([1]; 24 h) | IC50 [2] | IC50 [3] |
| --- | --- | --- | --- | --- |
| COCC(=O)Nc1cc(Oc2ccc(NC(=O)Nc3cc(C(C)(C)C)nn3-c3ccc(C)cc3)c3ccccc23)ccn1 [Reference Compound, N-(4-(4-(3-(3-tert-butyl-1-p-tolyl-1H-pyrazol-5-yl)ureido)naphthalen-1-yloxy)pyridin-2-yl)-2-methoxyacetamide, reference compound] | − (−ve and +ve indicate the value is below and above, respectively, the no significant effect threshold defined as 30% inhibition at 10 μg/mL at the time point indicated) | + (−ve and +ve indicate the value is below and above, respectively, the no significant effect threshold defined as 30% inhibition at 10 μg/mL at the time point indicated) |  |  |
| CCc1ccc(-n2nc(C(C)(C)C)cc2NC(=O)Nc2ccc(OCc3ccnc(Nc4cnc(C(=O)N5CCCC5)cn4)c3)c3ccccc23)cc1 [Example 229, 1-(3-(tert-butyl)-1-(4-ethyl-phenyl)-1H-pyrazol-5-yl)-3-(4-((2-((5-(pyrrolidine-1-carbonyl)pyrazin-2-yl)amino)pyridin-4-yl)methoxy)naphthalen-1-yl)urea] |  |  | > 14100 nM | 27 nM |
| COc1cc(-n2nc(C(C)(C)C)cc2NC(=O)Nc2ccc(OCc3ccnc(Nc4cnccn4)c3)c3ccccc23)ccc1C [Example 57] |  |  | 229 nM | 15 nM |
| COc1cc(-n2nc(C(C)(C)C)cc2NC(=O)Nc2ccc(OCc3ccnc(Nc4cnccn4)c3)c3ccccc23)ccn1 [Example 264, 1-(3-(tert-butyl)-1-(2-methoxypyridin-4-yl)-1H-pyrazol-5-yl)-3-(4-((2-(pyrazin-2-ylamino)pyridin-4-yl)methoxy)naphthalen-1-yl)urea] |  |  | 109 nM | 23 nM |
| CCCc1cncc(Nc2cc(COc3ccc(NC(=O)Nc4cc(C(C)(C)C)nn4-c4ccc(C)c(F)c4)c4ccccc34)ccn2)n1 [Example 194, 1-(3-(tert-butyl)-1-(3-fluoro-4-methylphenyl)-1H-pyrazol-5-yl)-3-(4-((2-((6-propyl-pyrazin-2-yl)amino)pyridin-4-yl)methoxy)naphthalen-1-yl)urea] |  |  | 8410 nM | 207 nM |
| COCCCNC(=O)c1cnc(Nc2cc(COc3ccc(NC(=O)Nc4cc(C(C)(C)C)nn4-c4ccc(C)cc4)c4ccccc34)ccn2)cn1 [Example 186, 5-((4-(((4-(3-(3-(tert-butyl)-1-(p-tolyl)-1H-pyrazol-5-yl)ureido)naphthalen-1-yl)oxy)methyl)pyridin-2-yl)amino)-N-(3-methoxypropyl) pyrazine-2-carboxamide] |  |  | > 14000 nM | 25 nM |
| COCCN(C)C(=O)c1cnc(Nc2cc(COc3ccc(NC(=O)Nc4cc(C(C)(C)C)nn4-c4cccc(C)c4)c4ccccc34)ccn2)cn1 [Example 205, 5-((4-(((4-(3-(3-(tert-butyl)-1-(m-tolyl)-1H-pyrazol-5-yl)ureido)naphthalen-1-yl)oxy)methyl)pyridin-2-yl)amino)-N-(2-methoxyethyl)-N-methylpyrazine-2-carboxamide] |  |  | 263 nM | 13 nM |
| COc1cc(F)cc(-n2nc(C(C)(C)C)cc2NC(=O)Nc2ccc(OCc3ccnc(Nc4cnccn4)c3)c3ccccc23)c1 [Example 220, 1-(3-(tert-butyl)-1-(3-fluoro-5-methoxyphenyl)-1H-pyrazol-5-yl)-3-(4-((2-(pyrazin-2-ylamino)pyridin-4-yl)methoxy)naphthalen-1-yl)urea] |  |  | 164 nM | 31 nM |
| Cc1ccc(-n2nc(C(C)(C)C)cc2NC(=O)Nc2ccc(OCc3ccnc(Nc4cnc(C(=O)N(C)CCCO)cn4)c3)c3ccccc23)cc1 [Example 223, 5-((4-(((4-(3-(3-(tert-butyl)-1-(p-tolyl)-1H-pyrazol-5-yl)ureido)naphthalen-1-yl)oxy)methyl)pyridin-2-yl)amino)-N-(3-hydroxypropyl)-N-methylpyrazine-2-carboxamide] |  |  | 103 nM | 11 nM |
| CO[C@@H]1CCN(C(=O)c2cnc(Nc3cc(COc4ccc(NC(=O)Nc5cc(C(C)(C)C)nn5-c5cccc(C)c5)c5ccccc45)ccn3)cn2)C1 [Example 199, (R)-1-(3-(tert-butyl)-1-(m-tolyl)-1H-pyrazol-5-yl)-3-(4-((2-((5-(3-methoxy-pyrrolidine-1-carbonyl)pyrazin-2-yl)amino)pyridin-4-yl)methoxy)naphthalen-1-yl)urea] |  |  | > 13800 nM | 11 nM |
| Cc1ccc(-n2nc(C(C)(C)C)cc2NC(=O)Nc2ccc(OCc3ccnc(Nc4cnc(C(=O)NCCCO)cn4)c3)c3ccccc23)cc1 [Example 134, 5-((4-(((4-(3-(3-(tert-butyl)-1-(p-tolyl)-1H-pyrazol-5-yl)ureido)naphthalen-1-yl)oxy)methyl)pyridin-2-yl)amino)-N-(3-hydroxy-propyl)pyrazine-2-carboxamide] |  |  | 35 nM | 3.8 nM |
| Cc1ccc(-n2nc(C(C)(C)C)cc2NC(=O)Nc2ccc(OCc3ccnc(Nc4cnc(C(=O)N5C[C@H](O)[C@@H](O)C5)cn4)c3)c3ccccc23)cc1 [Example 247, 1-(3-(tert-butyl)-1-(p-tolyl)-1H-pyrazol-5-yl)-3-(4-((2-((5-((3S,4S)-3,4-dihydroxy-pyrrolidine-1-carbonyl)pyrazin-2-yl)amino)pyridin-4-yl)methoxy)naphthalen-1-yl)urea] |  |  | 61 nM | 7 nM |
| CCc1cccc(-n2nc(C(C)(C)C)cc2NC(=O)Nc2ccc(OCc3ccnc(Nc4cnccn4)c3)c3ccccc23)c1 [Example 165, 1-(3-(tert-butyl)-1-(3-ethyl-phenyl)-1H-pyrazol-5-yl)-3-(4-((2-(pyrazin-2-ylamino)pyridin-4-yl)methoxy)naphthalen-1-yl) urea] |  |  | 128 nM | 12 nM |
| CCc1cccc(-n2nc(C(C)(C)C)cc2NC(=O)Nc2ccc(OCc3ccnc(Nc4cnc(C(=O)N5CCCC5)cn4)c3)c3ccccc23)c1 [Example 230, 1-(3-(tert-butyl)-1-(3-ethyl-phenyl)-1H-pyrazol-5-yl)-3-(4-((2-((5-(pyrrolidine-1-carbonyl)pyrazin-2-yl)amino)pyridin-4-yl)methoxy)naphthalen-1-yl)urea] |  |  | > 14100 nM | 43 nM |
| Cc1ccc(-n2nc(C(C)(C)C)cc2NC(=O)Nc2ccc(OCc3ccnc(Nc4cnc(C(=O)N5CCC[C@@H](O)C5)cn4)c3)c3ccccc23)cc1 [Example 233, (R)-1-(3-(tert-butyl)-1-(p-tolyl)-1H-pyrazol-5-yl)-3-(4-((2-((5-(3-hydroxypiperidine-1-carbonyl)pyrazin-2-yl)amino)pyridin-4-yl)methoxy)naphthalen-1-yl)urea] |  |  | 98 nM | 9.4 nM |
| Cc1ccc(-n2nc(C(C)(C)C)cc2NC(=O)Nc2ccc(OCc3ccnc(Nc4cnc(C(=O)N5CCC(C)CC5)cn4)c3)c3ccccc23)cc1 [Example 185, 1-(3-(tert-butyl)-1-(p-tolyl)-1H-pyrazol-5-yl)-3-(4-((2-((5-(4-methylpiperidine-1-carbonyl)pyrazin-2-yl)amino)pyridin-4-yl)methoxy)naphthalen-1-yl) urea] |  |  | 2510 nM | 110 nM |
